Assay results: PubChem BioAssay (NCI)
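Tested at 5 concentrations; 48 h exposure; 96-well plates; endpoints linearly interpolated, else capped at highest concentration. GI50 is the concentration that inhibits growth by half. TGI: total growth inhibition.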

Experiments:
Assay in all cases: growth of human tumour cells (NCI), 48 h
PC-3 prostate = test system: PC-3 prostate
SK-MEL-2 melanoma = test system: SK-MEL-2 melanoma
NCI/ADR-RES ovarian = test system: NCI/ADR-RES ovarian
A549 NSCLC = test system: A549 NSCLC
NCI-H522 lung = test system: NCI-H522 lung
DU-145 prostate = test system: DU-145 prostate
SR leukemia = test system: SR leukemia
786-0 renal = test system: 786-0 renal
SW-620 colon = test system: SW-620 colon
T-47D breast = test system: T-47D breast
MDA-MB-435 = test system: MDA-MB-435
SN12C renal = test system: SN12C renal
OVCAR-4 ovarian = test system: OVCAR-4 ovarian
LOX IMVI melanoma = test system: LOX IMVI melanoma
SF-539 CNS = test system: SF-539 CNS
HCT-15 colon = test system: HCT-15 colon
NCI-H226 lung = test system: NCI-H226 lung
OVCAR-3 ovarian = test system: OVCAR-3 ovarian
U251 CNS = test system: U251 CNS
SK-OV-3 ovarian = test system: SK-OV-3 ovarian
SF-268 CNS = test system: SF-268 CNS
CCRF-CEM leukemia = test system: CCRF-CEM leukemia
RXF 393 renal = test system: RXF 393 renal
NCI-H460 lung = test system: NCI-H460 lung
SK-MEL-28 melanoma = test system: SK-MEL-28 melanoma
HS 578T breast = test system: HS 578T breast
KM12 colon = test system: KM12 colon
K-562 leukemia = test system: K-562 leukemia
NCI-H23 lung = test system: NCI-H23 lung
UACC-257 melanoma = test system: UACC-257 melanoma
TK-10 renal = test system: TK-10 renal
ACHN renal = test system: ACHN renal
CAKI-1 renal = test system: CAKI-1 renal
HL-60(TB) leukemia = test system: HL-60(TB) leukemia
COLO 205 colon = test system: COLO 205 colon
HOP-92 NSCLC = test system: HOP-92 NSCLC
MCF7 breast = test system: MCF7 breast
M14 melanoma = test system: M14 melanoma
SK-MEL-5 melanoma = test system: SK-MEL-5 melanoma
SNB-75 CNS = test system: SNB-75 CNS
MOLT-4 leukemia = test system: MOLT-4 leukemia
HT29 colon = test system: HT29 colon
MDA-MB-231 breast = test system: MDA-MB-231 breast
BT-549 breast = test system: BT-549 breast
HCT-116 colon = test system: HCT-116 colon
UO-31 renal = test system: UO-31 renal
OVCAR-5 ovarian = test system: OVCAR-5 ovarian
A498 renal = test system: A498 renal
UACC-62 melanoma = test system: UACC-62 melanoma
RPMI-8226 leukemia = test system: RPMI-8226 leukemia
HCC-2998 colon = test system: HCC-2998 colon
OVCAR-8 ovarian = test system: OVCAR-8 ovarian
HOP-62 NSCLC = test system: HOP-62 NSCLC
IGROV1 ovarian = test system: IGROV1 ovarian

SMILES: Cc1nc(N(C)C)nc(-c2cccc(-c3ccn(CCN(C)C)n3)c2)c1C
- GI50 (PC-3 prostate): > 20 µM
- TGI (PC-3 prostate): > 20 µM
- GI50 (SK-MEL-2 melanoma): > 20 µM
- TGI (SK-MEL-2 melanoma): > 20 µM
- GI50 (NCI/ADR-RES ovarian): > 20 µM
- TGI (NCI/ADR-RES ovarian): > 20 µM
- GI50 (A549 NSCLC): > 20 µM
- TGI (A549 NSCLC): > 20 µM
- GI50 (NCI-H522 lung): > 20 µM
- TGI (NCI-H522 lung): > 20 µM
- GI50 (DU-145 prostate): > 20 µM
- TGI (DU-145 prostate): > 20 µM
- GI50 (SR leukemia): > 20 µM
- TGI (SR leukemia): > 20 µM
- GI50 (786-0 renal): > 20 µM
- TGI (786-0 renal): > 20 µM
- GI50 (SW-620 colon): > 20 µM
- TGI (SW-620 colon): > 20 µM
- GI50 (T-47D breast): > 20 µM
- TGI (T-47D breast): > 20 µM
- GI50 (MDA-MB-435): > 20 µM
- TGI (MDA-MB-435): > 20 µM
- GI50 (SN12C renal): > 20 µM
- TGI (SN12C renal): > 20 µM
- GI50 (OVCAR-4 ovarian): > 20 µM
- TGI (OVCAR-4 ovarian): > 20 µM
- GI50 (LOX IMVI melanoma): > 20 µM
- TGI (LOX IMVI melanoma): > 20 µM
- GI50 (SF-539 CNS): > 20 µM
- TGI (SF-539 CNS): > 20 µM
- GI50 (HCT-15 colon): > 20 µM
- TGI (HCT-15 colon): > 20 µM
- GI50 (NCI-H226 lung): > 20 µM
- TGI (NCI-H226 lung): > 20 µM
- GI50 (OVCAR-3 ovarian): > 20 µM
- TGI (OVCAR-3 ovarian): > 20 µM
- GI50 (U251 CNS): > 20 µM
- TGI (U251 CNS): > 20 µM
- GI50 (SK-OV-3 ovarian): > 20 µM
- TGI (SK-OV-3 ovarian): > 20 µM
- GI50 (SF-268 CNS): > 20 µM
- TGI (SF-268 CNS): > 20 µM
- GI50 (CCRF-CEM leukemia): > 20 µM
- TGI (CCRF-CEM leukemia): > 20 µM
- GI50 (RXF 393 renal): > 20 µM
- TGI (RXF 393 renal): > 20 µM
- GI50 (NCI-H460 lung): > 20 µM
- TGI (NCI-H460 lung): > 20 µM
- GI50 (SK-MEL-28 melanoma): > 20 µM
- TGI (SK-MEL-28 melanoma): > 20 µM
- GI50 (HS 578T breast): 12.7 µM
- TGI (HS 578T breast): > 20 µM
- GI50 (KM12 colon): > 20 µM
- TGI (KM12 colon): > 20 µM
- GI50 (K-562 leukemia): > 20 µM
- TGI (K-562 leukemia): > 20 µM
- GI50 (NCI-H23 lung): > 20 µM
- TGI (NCI-H23 lung): > 20 µM
- GI50 (UACC-257 melanoma): > 20 µM
- TGI (UACC-257 melanoma): > 20 µM
- GI50 (TK-10 renal): > 20 µM
- TGI (TK-10 renal): > 20 µM
- GI50 (ACHN renal): > 20 µM
- TGI (ACHN renal): > 20 µM
- GI50 (CAKI-1 renal): 19.5 µM
- TGI (CAKI-1 renal): > 20 µM
- GI50 (HL-60(TB) leukemia): > 20 µM
- TGI (HL-60(TB) leukemia): > 20 µM
- GI50 (COLO 205 colon): > 20 µM
- TGI (COLO 205 colon): > 20 µM
- GI50 (HOP-92 NSCLC): 4.71 µM
- TGI (HOP-92 NSCLC): > 20 µM
- GI50 (MCF7 breast): > 20 µM
- TGI (MCF7 breast): > 20 µM
- GI50 (M14 melanoma): > 20 µM
- TGI (M14 melanoma): > 20 µM
- GI50 (SK-MEL-5 melanoma): 15.9 µM
- TGI (SK-MEL-5 melanoma): > 20 µM
- GI50 (SNB-75 CNS): 4.04 µM
- TGI (SNB-75 CNS): > 20 µM
- GI50 (MOLT-4 leukemia): > 20 µM
- TGI (MOLT-4 leukemia): > 20 µM
- GI50 (HT29 colon): > 20 µM
- TGI (HT29 colon): > 20 µM
- GI50 (MDA-MB-231 breast): > 20 µM
- TGI (MDA-MB-231 breast): > 20 µM
- GI50 (BT-549 breast): > 20 µM
- TGI (BT-549 breast): > 20 µM
- GI50 (HCT-116 colon): > 20 µM
- TGI (HCT-116 colon): > 20 µM
- GI50 (UO-31 renal): 9.63 µM
- TGI (UO-31 renal): > 20 µM
- GI50 (OVCAR-5 ovarian): > 20 µM
- TGI (OVCAR-5 ovarian): > 20 µM
- GI50 (A498 renal): 0.628 µM
- TGI (A498 renal): > 20 µM
- GI50 (UACC-62 melanoma): > 20 µM
- TGI (UACC-62 melanoma): > 20 µM
- GI50 (RPMI-8226 leukemia): > 20 µM
- TGI (RPMI-8226 leukemia): > 20 µM
- GI50 (HCC-2998 colon): > 20 µM
- TGI (HCC-2998 colon): > 20 µM
- GI50 (OVCAR-8 ovarian): > 20 µM
- TGI (OVCAR-8 ovarian): > 20 µM
- GI50 (HOP-62 NSCLC): > 20 µM
- TGI (HOP-62 NSCLC): > 20 µM
- GI50 (IGROV1 ovarian): > 20 µM
- TGI (IGROV1 ovarian): > 20 µM
